Values joined by “and” are separate entries in the source; they are usually repeats but may differ in a detail not shown here. Identical values can stand only once. Active and inactive are the calls of the source. Peptide text beside a SMILES is read from it. * marks the point of attachment. Cbz = O=C(OCc1ccccc1)*; CH2Cl = ClC*
Legend:
cells [1] = assay: cells
[2] = HEp-2 cell cytotoxicity, dose response, cytotoxicity control for RSV inhibitor project, HTS (AID 2410); type: functional; conditions: human respiratory syncytial virus
Vero [3] = assay: cells; type: functional, cell-based; conditions: Chlorocebus sabaeus
[4] = molecular target: T1, Adenosylmethionine-8-amino-7-oxononanoate aminotransferase (Mycobacterium tuberculosis, UniProt P9WQ81); assay: Mycobacterium tuberculosis BioA enzyme inhibitor Measured in Biochemical System Using Plate Reader - 2163-02_Inhibitor_Dose_CherryPick_Activity.; type: functional, Mycobacterium tuberculosis UT205
T1 sequence (P9WQ81 whole entry): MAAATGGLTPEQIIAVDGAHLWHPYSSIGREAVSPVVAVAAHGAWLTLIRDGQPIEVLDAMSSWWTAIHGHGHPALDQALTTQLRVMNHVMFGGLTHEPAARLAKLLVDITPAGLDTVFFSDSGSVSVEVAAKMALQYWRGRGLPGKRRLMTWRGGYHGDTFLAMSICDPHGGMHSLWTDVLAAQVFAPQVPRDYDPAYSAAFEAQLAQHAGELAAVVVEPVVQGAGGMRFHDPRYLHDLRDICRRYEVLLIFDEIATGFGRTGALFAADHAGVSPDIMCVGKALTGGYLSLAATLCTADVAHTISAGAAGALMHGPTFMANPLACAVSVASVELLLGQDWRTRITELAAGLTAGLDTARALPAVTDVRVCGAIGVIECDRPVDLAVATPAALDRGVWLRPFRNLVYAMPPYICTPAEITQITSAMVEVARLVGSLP

[5] = insulin promoter down-regulators in MIN6 cells, imaging, high-content screening, mouse beta cells (AID 1628); type: functional
[6] = molecular target: T2, Ubiquitin-conjugating enzyme E2 N (Homo sapiens, UniProt P61088); type: functional;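 further: Dose-response confirmation in a TR-FRET assay detecting UBC13-driven polyubiquitin chain formation, inhibition measured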
T2 sequence (P61088 whole entry): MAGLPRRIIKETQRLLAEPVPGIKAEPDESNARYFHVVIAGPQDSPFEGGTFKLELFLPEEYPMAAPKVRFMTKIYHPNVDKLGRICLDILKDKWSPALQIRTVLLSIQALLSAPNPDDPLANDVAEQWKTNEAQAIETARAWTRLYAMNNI

[7] = cytotoxicity in MIN6 insulinoma cells, dose response, cytotoxicity control, cell-based, mouse insulinoma (AID 2122); type: functional;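 further: confirmatory high-throughput counterscreen run to flag cytotoxic compounds; mouse MIN-6 beta cells carrying an insulin promoter eGFP reporter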
Fatty acid synthase [8] = molecular target: T3, Fatty acid synthase (Homo sapiens, UniProt P49327); assay: FAS thioesterase domain inhibitors, dose response, biochemical, endpoint fluorescence intensity, uHTS hits (AID 624327); type: functional;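 further: fluorescence from hydrolysis of an O-methyl fluorescein acyl ester substrate by the enzyme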
Fatty acid synthase [9] = molecular target: T3, Fatty acid synthase; assay: FAS thioesterase domain inhibitors, dose response, biochemical, kinetic fluorescence intensity (AID 624326); type: functional;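 further: rate of fluorescence rise from hydrolysis of a fluorogenic O-methyl fluorescein ester substrate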
[10] = molecular target: DNA dC->dU-editing enzyme APOBEC-3G (Homo sapiens, UniProt Q9HC16); type: functional;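 further: Dose-response counterscreen measuring inhibition of APOBEC3G DNA deaminase activity, run while confirming APOBEC3A inhibitors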
[11] = molecular target: DNA dC->dU-editing enzyme APOBEC-3A (Homo sapiens, UniProt P31941); assay: Dose Response confirmation of small molecule APOBEC3A DNA Deaminase Inhibitors via a fluorescence-based single-stranded DNA deaminase assay. [Related pubchem assays (depositor defined):AID493011, AID493024]; type: functional
[12] = molecular target: G-protein coupled receptor 55 (Homo sapiens, UniProt Q9Y2T6); assay: GPR55 antagonists blocking LPI-driven arrestin recruitment, primary screen, imaging, U2OS, beta-arrestin-GFP, LPI agonist (AID 2013); type: functional;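 further: antagonist potency measured as reduced agonist-driven arrestin aggregation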
[13] = molecular target: T4, Microphthalmia-associated transcription factor (Homo sapiens, UniProt O75030); assay: TRPM1 promoter luciferase signal decrease, dose response, MITF inhibitor project, cell-based, SK-MEL-5, cherry-picked, set 3 (AID 493073); type: functional
T4 sequence (O75030 whole entry): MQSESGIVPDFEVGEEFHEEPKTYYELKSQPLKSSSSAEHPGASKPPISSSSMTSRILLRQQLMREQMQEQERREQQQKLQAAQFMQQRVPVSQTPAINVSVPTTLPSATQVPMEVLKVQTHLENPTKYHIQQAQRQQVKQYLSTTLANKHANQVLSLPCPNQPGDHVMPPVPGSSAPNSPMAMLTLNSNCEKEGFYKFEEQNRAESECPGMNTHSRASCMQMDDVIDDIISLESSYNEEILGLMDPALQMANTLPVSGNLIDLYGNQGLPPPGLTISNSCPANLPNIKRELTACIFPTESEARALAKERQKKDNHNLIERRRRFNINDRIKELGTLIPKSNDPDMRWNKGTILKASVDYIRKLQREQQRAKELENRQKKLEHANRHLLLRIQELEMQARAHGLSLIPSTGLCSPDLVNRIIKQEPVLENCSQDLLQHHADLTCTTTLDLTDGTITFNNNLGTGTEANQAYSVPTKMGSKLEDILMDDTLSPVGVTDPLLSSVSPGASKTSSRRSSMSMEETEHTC

Beta-lactamase [14] = molecular target: Beta-lactamase (Salmonella choleraesuis (strain SC-B67), UniProt Q5J463)
[15] = molecular target: T5, Voltage-gated N-type calcium channel alpha-1B subunit/Amyloid beta A4 precursor protein-binding family A member 1 (Homo sapiens, UniProt Q00975+Q02410); type: protein assay
[16] = molecular target: T6, Small ubiquitin-related modifier 1 (Homo sapiens, UniProt P63165); assay: inhibitors of SUMO1 peptide binding, dose response, biochemical, fluorescence polarization, uHTS hits (AID 624382); type: functional; conditions: read-out: IC50_Mean
[17] = molecular target: T5, Voltage-gated N-type calcium channel alpha-1B subunit/Amyloid beta A4 precursor protein-binding family A member 1; type: protein assay; remark: listed apart in the source
[18] = molecular target: T6, Small ubiquitin-related modifier 1; assay: inhibitors of SUMO1 partner interactions, dose response, biochemical, FRET (AID 624383); type: functional; conditions: read-out: IC50_Mean
Beta-lactamase [19] = molecular target: Beta-lactamase (Pseudomonas aeruginosa, UniProt Q79MP6);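 further: biochemical dose-response test of metallo-beta-lactamase enzyme inhibition, read out by epi-absorbance; purified recombinant IMP-1 metallo-beta-lactamase with nitrocefin as substrate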
cells [20] = type: functional, cell-based
[21] = molecular target: T7, Trace amine-associated receptor 1 (Homo sapiens, UniProt Q96RJ0); assay: Fluorescence-based cell-based high throughput dose response assay to identify agonists of the human trace amine associated receptor 1 (TAAR1).; type: functional
T7 sequence (Q96RJ0 whole entry): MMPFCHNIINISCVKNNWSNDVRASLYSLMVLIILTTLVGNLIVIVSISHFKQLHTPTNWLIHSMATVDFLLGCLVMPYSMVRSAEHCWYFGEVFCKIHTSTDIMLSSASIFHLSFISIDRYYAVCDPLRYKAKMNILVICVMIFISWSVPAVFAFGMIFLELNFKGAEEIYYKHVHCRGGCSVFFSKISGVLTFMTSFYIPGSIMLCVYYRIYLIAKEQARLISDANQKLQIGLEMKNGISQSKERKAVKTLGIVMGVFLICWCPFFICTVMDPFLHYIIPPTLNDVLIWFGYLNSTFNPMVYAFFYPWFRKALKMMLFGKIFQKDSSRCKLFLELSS

cells [22] = type: functional, cell-based; remark: listed apart in the source
[23] = molecular target: T7, Trace amine-associated receptor 1; assay: Counterscreen for agonists of the human trace amine associated receptor 1 (hTAAR1): Fluorescence-based cell-based high throughput dose response assay to identify hTAAR1 agonist that also desensitize TAAR1 receptor response.; type: functional
HEK293 [24] = assay: cells; conditions: Homo sapiens
HEK293 [25] = assay: cells; conditions: Homo sapiens; remark: listed apart in the source
[26] = molecular target: Ras and Rab interactor 1/Tyrosine-protein kinase ABL1 (Homo sapiens, UniProt P00519+Q13671); type: functional;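 further: biochemical TR-FRET dose-response test measuring inhibition of binding between Rin1 and Abl proteins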
[27] = molecular target: 5-hydroxytryptamine receptor 2A (Mus musculus, UniProt P35363); type: functional, cell-based;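 further: CHO-K1 cells with tagged receptor and beta-arrestin; agonist potency measured as compound-induced activation of the receptor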
Mu-type opioid receptor = Mu-type opioid receptor (Homo sapiens, UniProt P35372); type: functional, cell-based;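 further: U2OS cells with beta-arrestin recruitment to OPRM1 by beta-gal complementation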
[28] = molecular target: T8, ATP-dependent translocase ABCB1 (Homo sapiens, UniProt P08183); assay: ABCG2 efflux pump inhibitor potency, dose response, Ig-MXP3 cells, JC-1, flow cytometry, set 2 (AID 504566); type: functional; conditions: read-out: EC50_MICROM_;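 further: flow cytometry median green fluorescence of retained JC-1 dye; potency of efflux pump inhibition measured as rising substrate retention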
[29] = molecular target: T8, ATP-dependent translocase ABCB1; assay: ABCB1 efflux inhibitor potency, dose response, Jurkat-DNR cells, JC-1, flow cytometry, set 2 (AID 504569); type: functional; conditions: read-out: EC50_MICROM_;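 further: potency of pump inhibitors that raise cellular JC-1 green fluorescence up to the nicardipine level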
Vero [30] = assay: cells; type: functional; conditions: Chlorocebus sabaeus

Sequence of DNA dC->dU-editing enzyme APOBEC-3A (P31941 whole entry): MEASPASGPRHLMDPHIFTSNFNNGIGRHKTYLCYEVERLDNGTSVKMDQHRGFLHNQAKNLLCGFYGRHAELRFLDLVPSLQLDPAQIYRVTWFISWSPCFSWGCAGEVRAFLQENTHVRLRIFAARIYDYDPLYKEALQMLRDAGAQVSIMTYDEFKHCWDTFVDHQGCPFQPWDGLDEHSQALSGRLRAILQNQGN
Sequence of Mu-type opioid receptor (P35372 whole entry): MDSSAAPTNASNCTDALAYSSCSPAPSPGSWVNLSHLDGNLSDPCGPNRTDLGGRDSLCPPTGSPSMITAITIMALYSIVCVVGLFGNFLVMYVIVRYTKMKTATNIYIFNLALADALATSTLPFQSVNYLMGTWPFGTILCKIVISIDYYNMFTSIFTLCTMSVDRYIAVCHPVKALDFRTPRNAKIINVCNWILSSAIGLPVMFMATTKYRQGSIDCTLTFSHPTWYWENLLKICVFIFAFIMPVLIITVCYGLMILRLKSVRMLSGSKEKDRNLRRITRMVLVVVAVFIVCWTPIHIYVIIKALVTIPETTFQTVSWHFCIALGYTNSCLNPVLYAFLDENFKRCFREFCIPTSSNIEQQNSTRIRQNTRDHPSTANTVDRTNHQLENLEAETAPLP
Sequence of DNA dC->dU-editing enzyme APOBEC-3G (Q9HC16 whole entry): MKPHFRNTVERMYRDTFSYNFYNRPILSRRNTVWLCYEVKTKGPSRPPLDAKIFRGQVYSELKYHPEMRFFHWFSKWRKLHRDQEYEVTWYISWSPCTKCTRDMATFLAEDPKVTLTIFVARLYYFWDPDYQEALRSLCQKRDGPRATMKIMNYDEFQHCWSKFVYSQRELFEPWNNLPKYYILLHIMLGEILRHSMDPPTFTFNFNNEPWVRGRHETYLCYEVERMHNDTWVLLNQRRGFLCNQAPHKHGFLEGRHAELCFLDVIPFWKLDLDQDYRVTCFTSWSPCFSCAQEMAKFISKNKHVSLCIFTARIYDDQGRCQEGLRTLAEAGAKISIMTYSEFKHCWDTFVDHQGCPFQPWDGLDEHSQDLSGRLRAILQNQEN
T8 sequence (P08183 whole entry): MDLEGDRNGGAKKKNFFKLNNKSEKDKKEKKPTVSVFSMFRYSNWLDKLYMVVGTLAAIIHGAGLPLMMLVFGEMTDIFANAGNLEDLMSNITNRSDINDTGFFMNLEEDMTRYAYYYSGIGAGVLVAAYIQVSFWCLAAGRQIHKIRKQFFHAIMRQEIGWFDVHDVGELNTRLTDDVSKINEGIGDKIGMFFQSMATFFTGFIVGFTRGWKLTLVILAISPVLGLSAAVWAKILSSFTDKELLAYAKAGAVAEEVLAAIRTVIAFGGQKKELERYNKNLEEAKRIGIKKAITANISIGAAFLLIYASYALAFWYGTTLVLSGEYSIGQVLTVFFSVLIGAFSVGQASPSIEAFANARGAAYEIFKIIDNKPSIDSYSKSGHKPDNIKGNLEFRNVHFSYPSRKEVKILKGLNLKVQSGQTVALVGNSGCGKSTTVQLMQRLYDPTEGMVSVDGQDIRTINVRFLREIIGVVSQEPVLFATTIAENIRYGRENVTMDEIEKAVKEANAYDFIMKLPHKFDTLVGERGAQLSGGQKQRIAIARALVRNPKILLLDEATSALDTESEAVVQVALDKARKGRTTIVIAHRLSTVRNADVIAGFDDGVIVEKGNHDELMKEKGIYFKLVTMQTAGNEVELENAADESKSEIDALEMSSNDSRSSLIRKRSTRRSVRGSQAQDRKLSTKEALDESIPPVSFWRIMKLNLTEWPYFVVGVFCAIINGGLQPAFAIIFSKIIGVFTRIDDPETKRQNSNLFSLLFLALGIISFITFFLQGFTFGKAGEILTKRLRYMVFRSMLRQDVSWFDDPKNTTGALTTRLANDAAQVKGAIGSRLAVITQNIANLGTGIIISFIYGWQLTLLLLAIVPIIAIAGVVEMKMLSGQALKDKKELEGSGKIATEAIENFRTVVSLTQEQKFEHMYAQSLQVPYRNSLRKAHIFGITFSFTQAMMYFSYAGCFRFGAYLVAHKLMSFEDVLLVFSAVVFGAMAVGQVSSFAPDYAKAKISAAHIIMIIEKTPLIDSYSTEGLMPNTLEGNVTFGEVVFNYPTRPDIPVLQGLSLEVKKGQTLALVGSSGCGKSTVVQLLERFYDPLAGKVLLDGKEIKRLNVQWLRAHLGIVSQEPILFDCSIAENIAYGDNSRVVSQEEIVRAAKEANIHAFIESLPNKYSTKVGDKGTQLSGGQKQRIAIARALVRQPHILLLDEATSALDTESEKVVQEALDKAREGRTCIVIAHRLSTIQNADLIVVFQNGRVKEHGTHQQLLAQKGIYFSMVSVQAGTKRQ
Sequence of 5-hydroxytryptamine receptor 2A (P35363 whole entry): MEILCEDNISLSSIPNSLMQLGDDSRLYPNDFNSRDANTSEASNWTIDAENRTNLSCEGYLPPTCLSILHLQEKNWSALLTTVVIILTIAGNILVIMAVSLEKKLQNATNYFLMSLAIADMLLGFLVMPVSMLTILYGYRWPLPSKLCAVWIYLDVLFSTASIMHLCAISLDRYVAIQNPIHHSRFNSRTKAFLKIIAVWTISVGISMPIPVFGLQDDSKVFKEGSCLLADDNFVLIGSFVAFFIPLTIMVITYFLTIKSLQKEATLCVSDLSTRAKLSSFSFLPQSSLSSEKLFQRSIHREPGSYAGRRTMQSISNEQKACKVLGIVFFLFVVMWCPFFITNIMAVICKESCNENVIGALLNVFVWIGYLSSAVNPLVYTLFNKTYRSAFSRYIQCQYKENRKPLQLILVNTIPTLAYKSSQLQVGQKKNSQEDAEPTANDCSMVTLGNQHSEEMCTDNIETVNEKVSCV
T6 sequence (P63165 whole entry): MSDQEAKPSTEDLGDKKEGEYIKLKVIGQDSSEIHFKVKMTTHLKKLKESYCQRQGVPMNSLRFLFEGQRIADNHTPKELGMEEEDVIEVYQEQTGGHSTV
Sequence of G-protein coupled receptor 55 (Q9Y2T6 whole entry): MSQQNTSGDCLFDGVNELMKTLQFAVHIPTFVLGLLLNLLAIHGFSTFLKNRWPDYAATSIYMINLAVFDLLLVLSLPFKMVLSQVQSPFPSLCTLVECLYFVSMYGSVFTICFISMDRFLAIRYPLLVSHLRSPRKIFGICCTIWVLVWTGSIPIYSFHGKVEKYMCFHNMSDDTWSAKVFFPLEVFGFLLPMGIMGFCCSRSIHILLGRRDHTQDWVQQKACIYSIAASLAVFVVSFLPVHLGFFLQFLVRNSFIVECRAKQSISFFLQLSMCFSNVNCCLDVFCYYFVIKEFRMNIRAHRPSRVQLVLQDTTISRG
Sequence of Beta-lactamase (Salmonella choleraesuis (strain SC-B67), UniProt Q5J463) (Q5J463 whole entry): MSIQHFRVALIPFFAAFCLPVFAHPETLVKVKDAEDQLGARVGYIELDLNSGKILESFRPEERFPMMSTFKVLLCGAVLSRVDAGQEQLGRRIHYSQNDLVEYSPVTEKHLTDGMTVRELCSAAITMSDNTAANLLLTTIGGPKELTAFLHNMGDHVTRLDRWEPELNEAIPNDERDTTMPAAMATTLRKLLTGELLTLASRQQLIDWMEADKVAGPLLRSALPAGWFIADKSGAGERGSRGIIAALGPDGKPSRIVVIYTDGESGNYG
Sequence of Beta-lactamase (Pseudomonas aeruginosa, UniProt Q79MP6) (Q79MP6 whole entry): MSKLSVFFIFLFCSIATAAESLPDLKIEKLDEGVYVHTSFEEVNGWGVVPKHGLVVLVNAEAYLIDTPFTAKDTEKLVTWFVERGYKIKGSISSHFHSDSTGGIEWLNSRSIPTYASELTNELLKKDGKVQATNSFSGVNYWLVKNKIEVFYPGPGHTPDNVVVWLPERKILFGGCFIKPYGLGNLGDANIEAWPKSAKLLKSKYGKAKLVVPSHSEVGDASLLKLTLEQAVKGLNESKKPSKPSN

## O=C(O)c1cccnc1Nc1ccc(Cl)cc1
Cells [1]
  IC50: 7.51 µM (active)
[2]
  CC50: 14.7 µM (active)
Vero [3]
  IC50: 17.3 µM (active)

## O=C(Nc1cccnc1)c1ccc(Oc2ccccc2)cc1
[4]
  AC50: 0.751 µM (active)

## CCOc1ccc2nc(NC3=NC(C)=CC(C)(C)N3)nc(C)c2c1
[5]
  IC50: 3.25 µM (active)
[6]
  IC50: > 20 µM (inactive)
[7]
  IC50: 6.46 µM (active)

## O=C(CNc1cc(S(=O)(=O)N2CCCC2)ccc1OCC(F)(F)F)Nc1ccc(SC(F)F)cc1
Fatty acid synthase [8]
  IC50: 6.37 µM (active)
[5]
  IC50: 2.54 µM (active)
Fatty acid synthase [9]
  IC50: 2.98 µM (active)
[7]
  IC50: 1.85 µM (active)

## CCN1/C(=C\C(C)=O)Sc2ccc(OC)cc21
[10]
  IC50: 2.89 µM (active)
[11]
  IC50: 2.69 µM (active)

## CCc1ccccc1N(CC)C(=O)CCc1nc(-c2ccc(C)cc2)no1
[12]
  IC50: 1.06 µM (active)

## CCSc1ccccc1C(=O)n1nnc2ccccc21
[13]
  AC50: 11.8 µM (active)

## Cc1ccc(Cn2c(C(C)Nc3nc(-c4ccc(C)cc4)cs3)nc3cc(Cl)c(Cl)cc32)cc1 (centres undefined)
Beta-lactamase [14]
  IC50: > 59.6 µM (inactive)
[15]
  IC50: 4.57 µM (active)
[16]
  IC50: > 66.6 µM (inactive)
[17]
  IC50: > 50 µM (inactive)
[18]
  IC50: 3.52 µM (active)
Beta-lactamase [19]
  IC50: > 59.6 µM (inactive)

## CN1CCC(N(C)S(=O)(=O)c2ccc(NC(=O)COc3ccc(Br)cc3Cl)cc2)CC1
[10]
  IC50: 14.2 µM (active)
[11]
  IC50: 10.4 µM (active)

## CCn1c(SCC(=O)NC2CCCCC2)nc2ccccc2c1=O
[10]
  IC50: 4.97 µM (active)
[11]
  IC50: 5.15 µM (active)

## CCOC(=O)C(NC(C)=O)(N1CCc2ccccc2C1)C(F)(F)F (centres undefined)
Cells [20]
  EC50: > 29.9 µM (inactive)
[21]
  EC50: 0.0868 µM (active)
Cells [22]
  IC50: > 29.9 µM (inactive)
[23]
  IC50: 2.8 µM (active)

## COc1cc(OC)c(-c2nn3c(C4CCCCC4)nnc3s2)cc1OC
[2]
  CC50: 33.1 µM (active)
HEK293 [24]
  EC50: > 59.6 µM (inactive)
HEK293 [25]
  EC50: > 59.6 µM (inactive)

## CN(C)C(=S)N=c1ssc(=S)n1Cc1cccnc1
HEK293 [24]
  EC50: > 59.6 µM (inactive)
HEK293 [25]
  EC50: > 59.6 µM (inactive)

## Cc1ccc(S(=O)(=O)N2CCN(C(=O)Cn3cnc4c3c(=O)n(C)c(=O)n4C)CC2)cc1C
[26]
  IC50: 21.5 µM (inactive)

## CN(c1ccc(OCC(=O)Nc2ccccc2C(=O)O)cc1)S(=O)(=O)c1ccc(Cl)cc1
Vero [3]
  IC50: 20.1 µM (active)

## CCN1C(=NCCN2CCOCC2)N[C@@H](c2ccccc2)C(C(=O)OC)=C1C
[10]
  IC50: 4.54 µM (active)
[11]
  IC50: 4.2 µM (active)

## Nc1c(N(CCC2=CCCCC2)C(=O)COc2ccc([N+](=O)[O-])cc2)c(=O)[nH]c(=O)n1Cc1ccccc1
[13]
  AC50: 14.2 µM (active)

## COc1ccc(CN2CCN(C(=O)c3ccco3)CC2)c(OC)c1OC
[27]
  EC50: 6.39 µM (active)
Mu-type opioid receptor
  EC50: 92.5 µM (inactive)

## Clc1ccc(CN2CCN(c3ccccc3)CC2)cn1
[27]
  EC50: 5.22 µM (active)
Mu-type opioid receptor
  EC50: 92.5 µM (inactive)

## O=C(c1ccncc1)N1CCN(c2cc(-c3ccccc3)nc3cc(-c4cccc(Cl)c4)nn23)CC1
[28]
  EC50: 1.19 µM (active)
[29]
  EC50: 950 nM (active)

## CC(N)Cc1c[nH]c2ccc(Cl)cc12 (centres undefined)
[27]
  EC50: 1.64 µM (active)
Mu-type opioid receptor
  EC50: 92.5 µM (inactive)

## CCNC(=O)C[C@H]1CC[C@@H]2[C@@H](COc3ccc(NC(=O)Nc4cccc(F)c4)cc3C(=O)N2C)O1
[4]
  AC50: 4.35 µM (active)

## O=C(c1ccccc1)N1CCN(c2cc(-c3ccccc3)nc3cc(-c4cccc(F)c4)nn23)CC1
[28]
  EC50: 2.41 µM (active)
[29]
  EC50: 5820 nM (active)

## CC(C)(C)[S@+]([O-])N1Cc2cc(C(=O)NCc3ccccc3F)nc(-c3cccc(-c4cccnc4)c3)c2[C@@H]1CCO
[4]
  AC50: 9.55 µM (active)

## O=C(c1ccccc1)N1CCN(c2cc(-c3ccccc3)nc3cc(-c4cccc(Cl)c4)nn23)CC1
[28]
  EC50: 1.05 µM (active) and 1.81 µM (active)
[29]
  EC50: 2.26 µM (active) and 4 µM (active)

## CC1(C)CC(=O)C(/C=N\CCc2ccc(O)cc2)=C(O)C1
Cells [20]
  EC50: > 29.9 µM (inactive)
[21]
  EC50: 1.84 µM (active)
Cells [22]
  IC50: > 29.9 µM (inactive)
[23]
  IC50: 8.81 µM (active)

## CC(C)CC(NC(=O)OCc1ccccc1)C(=O)NC(Cc1ccccc1)C(=O)CCl (stereo not drawn) (Cbz-Leu-Phe-CH2Cl; configuration not given here)
Vero [3]
  IC50: 20.5 µM (active)
Vero [30]
  CC50: 21.5 µM (active)

From ChEMBL document CHEMBL1201862, “PubChem BioAssay data set” (2004)
